A word on the melting point: it is the temperature of the solid-liquid transition.

SMILES strings stand for the structures. Where a name gives a salt, the structure may show the parent alone.

The values that follow come from US9447100B2, “Substituted pyrazolo[1,5-A] pyrimidines as calcium receptor modulating agents” (Takeda Pharmaceutical Company Limited, priority 2002, dated 2016).

Compound `CCC(CC)(NC(=O)c1cnn2c1NC(c1ccccc1)CC2(C)C)c1ccc(-c2ccoc2)cc1` (centres unmarked) [Example 585, N-(1-ethyl-1-(4-(3-furyl)phenyl)propyl)-7,7-dimethyl-5-phenyl-4,5,6,7-tetrahydropyrazolo[1,5-a]pyrimidine-3-carboxamide] yielded a melting point of 185 to 186 °C.
On to `CC(NC(=O)c1cnn2c1NC(c1ccc3ccccc3c1)CC2C(F)(F)F)C1C2CC3CC(C2)CC1C3` (centres unmarked) [Example 91, N-(1-(2-adamantyl)ethyl)-5-(2-naphthyl)-7-(trifluoromethyl)-4,5,6,7-tetrahydropyrazolo[1,5-a]pyrimidine-3-carboxamide], for which the melting point is 94 to 95 °C.
For `CCCC(CC)(CC)NC(=O)c1c(C)nn2c1NC(c1ccccc1F)CC2(C)C` (centres unmarked) (as salt: HCl) [Example 957, N-(1,1-diethylbutyl)-5-(2-fluorophenyl)-2,7,7-trimethyl-4,5,6,7-tetrahydropyrazolo[1,5-a]pyrimidine-3-carboxamide], the melting point fell in the range of 181 to 182 °C.
In the case of `CCC(CC)(NC(=O)c1c(C)nn2c1N[C@@H](c1ccccc1)CC2(C)C)c1ccc(I)cc1` (as salt: HCl) [Example 1073, (5R)-N-(1-ethyl-1-(4-iodophenyl)propyl)-2,7,7-trimethyl-5-phenyl-4,5,6,7-tetrahydropyrazolo[1,5-a]pyrimidine-3-carboxamide] it was 179 to 180 °C.
With `NC(=O)c1cnn2c1N[C@H](c1ccccc1)C[C@@H]2C(F)(F)F` (stereo in doubt) [Example 403, 5-phenyl-7-(trifluoromethyl)-4,5,6,7-tetrahydropyrazolo[1,5-a]pyrimidine-3-carboxamide], the melting point lay within 277 to 278 °C.
As for `CCc1ccc(C(CC)(CC)NC(=O)c2cnn3c2N[C@@H](c2ccccc2)CC3(C)C)cc1` (as salt: HCl) [Example 1051, (5R)-N-(1-ethyl-1-(4-ethylphenyl)propyl)-7,7-dimethyl-5-phenyl-4,5,6,7-tetrahydropyrazolo[1,5-a]pyrimidine-3-carboxamide], the melting point lay within 149 to 150 °C.
The compound `CC1(C)CC(c2ccccc2Cl)Nc2c(C(=O)O)cnn21` (centres unmarked) [Example 940, 5-(2-chlorophenyl)-7,7-dimethyl-4,5,6,7-tetrahydropyrazolo[1,5-a]pyrimidine-3-carboxylic acid] had a melting point of 167 to 168 °C.
For the compound `CCC(CC)(NC(=O)c1c(SC)nn2c1NC(c1ccccc1)CC2(C)C)c1ccc(Cl)cc1` (centres unmarked) (as salt: HCl) [Example 780, N-(1-(4-chlorophenyl)-1-ethylpropyl)-7,7-dimethyl-2-(methylthio)-5-phenyl-4,5,6,7-tetrahydropyrazolo[1,5-a]pyrimidine-3-carboxamide], the melting point lay in the range of 115 to 117 °C.
`CCC(CC)(NC(=O)c1c(C)nn2c1NC(c1ccccc1)CC2(C)C)c1ccc(F)cc1` (centres unmarked) [Example 761, N-(1-ethyl-1-(4-fluorophenyl)propyl)-2,7,7-trimethyl-5-phenyl-4,5,6,7-tetrahydropyrazolo[1,5-a]pyrimidine-3-carboxamide] registered a melting point of 182 to 183 °C.
In turn, `CCC(CC)(NC(=O)c1cnn2c1NC(c1ccco1)CC2(C)C)c1ccc(C(F)(F)F)cc1` (centres unmarked) [Example 693, N-(1-ethyl-1-(4-(trifluoro-methyl)phenyl)propyl)-5-(2-furyl)-7,7-dimethyl-4,5,6,7-tetrahydropyrazolo[1,5-a]pyrimidine-3-carboxamide] returned a melting point of 212 to 214 °C.
Turning to `O=C(c1cnn2c1NC(c1ccccc1)CC2C(F)(F)F)N1CCN(C(c2ccccc2)c2ccccc2)CC1` (centres unmarked) [Example 274, 3-((4-benzhydryl-1-piperazinyl)carbonyl)-5-phenyl-7-(trifluoromethyl)-4,5,6,7-tetrahydropyrazolo[1,5-a]pyrimidine], the melting point is 181 to 182 °C.
As for `CCOC(=O)CCCOc1ccc(C(CC)(CC)NC(=O)c2cnn3c2NC(c2ccccc2)CC3(C)C)cc1` (centres unmarked) [Example 770, ethyl 4-(4-(1-(((7,7-dimethyl-5-phenyl-4,5,6,7-tetrahydropyrazolo[1,5-a]pyrimidin-3-yl)carbonyl)amino)-1-ethyl-propyl)phenoxy)butanoate], the melting point lay in the range of 101 to 102 °C.
`CCOC(=O)c1ccc(C(CC)(CC)NC(=O)c2c(C)nn3c2N[C@@H](c2ccccc2)CC3(C)C)cc1` (as salt: HCl) [Example 1074, (5R)-ethyl 4-(1-ethyl-1-(((2,7,7-trimethyl-5-phenyl-4,5,6,7-tetrahydropyrazolo[1,5-a]pyrimidin-3-yl)carbonyl)amino)propyl) benzoate]: the melting point is 125 to 126 °C.
Compound `O=C(CNC(=O)c1cnn2c1N[C@H](c1ccccc1)C[C@@H]2C(F)(F)F)c1cc2ccccc2o1` (stereo in doubt) [Example 285, N-(2-(1-benzofuran-2-yl)-2-oxoethyl)-5-phenyl-7-(trifluoromethyl)-4,5,6,7-tetrahydropyrazolo[1,5-a]pyrimidine-3-carboxamide] yielded a melting point of 244 to 245 °C.
The compound `CCOC(=O)c1ccc(C(CC)(CC)NC(=O)c2c(C)nn3c2NC(c2ccccc2)CC3(C)C)cc1` (centres unmarked) [Example 954, ethyl 4-(1-ethyl-1-(((2,7,7-trimethyl-5-phenyl-4,5,6,7-tetrahydropyrazolo[1,5-a]pyrimidin-3-yl)carbonyl)amino)propyl) benzoate] showed a melting point of 152 to 153 °C.
For `CCC1(CC)C[C@@H](OCc2ccccc2)CN1C(=O)c1cnn2c1N[C@@H](c1ccccc1)CC2(C)C` [Example 1103, (5R)-3-(((4R)-4-(benzyloxy)-2,2-diethyl-1-pyrrolidinyl)carbonyl)-7,7-dimethyl-5-phenyl-4,5,6,7-tetrahydropyrazolo[1,5-a]pyrimidine], the melting point lay within 118 to 120 °C.
In the case of `CCC(CC)(NC(=O)c1c(C)nn2c1N[C@H](c1ccccc1F)CC2(C)C)c1ccc(C)cc1` (as salt: HCl) [Example 1083, (5S)-N-(1-ethyl-1-(4-methylphenyl)propyl)-5-(2-fluorophenyl)-2,7,7-trimethyl-4,5,6,7-tetrahydropyrazolo[1,5-a]pyrimidine-3-carboxamide] it was 203 to 204 °C; in that of `CCc1ccc(C2CC(C(F)(F)F)n3ncc(C(=O)O)c3N2)cc1` (centres unmarked) [Example 28, 5-(4-ethylphenyl)-7-(trifluoromethyl)-4,5,6,7-tetrahydropyrazolo[1,5-a]pyrimidine-3-carboxylic acid], 165 to 168 °C.
Regarding `CCC(NC(=O)c1cnn2c1NC(c1ccccc1)CC2C(F)(F)F)c1ccccc1Br` (centres unmarked) [Example 401, N-(1-(2-bromophenyl)propyl)-5-phenyl-7-(trifluoromethyl)-4,5,6,7-tetrahydropyrazolo[1,5-a]pyrimidine-3-carboxamide], the melting point was in the range of 236 to 237 °C.
In the case of `CCC(CC)(NC(=O)c1cnn2c1N(C)C(c1ccccc1)CC2(C)C)c1ccc(C)cc1` (centres unmarked) (as salt: HCl) [Example 827, N-(1-ethyl-1-(4-methylphenyl)propyl)-4,7,7-trimethyl-5-phenyl-4,5,6,7-tetrahydropyrazolo[1,5-a]pyrimidine-3-carboxamide] it was 120 to 121 °C; in that of `CCC(CC)(NC(=O)c1cnn2c1NC(c1ccccc1OC)CC2(C)C)c1ccc(C)cc1` (centres unmarked) (as salt: HCl) [Example 964, N-[1-ethyl-1-(4-methylphenyl)propyl]-5-(2-methoxyphenyl)-7,7-dimethyl-4,5,6,7-tetrahydropyrazolo[1,5-a]pyrimidine-3-carboxamide], 158 to 159 °C; in that of `CCC(CC)(NC(=O)c1c(C)nn2c1N[C@H](c1ccccc1Cl)CC2(C)C)c1ccc(C)cc1` (as salt: HCl) [Example 1090, (5S)-5-(2-chlorophenyl)-N-(1-ethyl-1-(4-methylphenyl)propyl)-2,7,7-trimethyl-4,5,6,7-tetrahydropyrazolo[1,5-a]pyrimidine-3-carboxamide], 173 to 174 °C.
In turn, `CCC(CC)(NC(=O)c1cnn2c1NC(c1ccccc1)CC2(C)C)c1cccc(C(F)(F)F)c1` (centres unmarked) [Example 434, N-(1-ethyl-1-(3-(trifluoromethyl)phenyl)propyl)-7,7-dimethyl-5-phenyl-4,5,6,7-tetrahydropyrazolo[1,5-a]pyrimidine-3-carboxamide] returned a melting point of 166 to 167 °C.
In the case of `CCCc1ccc(C(CC)(CC)NC(=O)c2cnn3c2NC(c2ccccc2)CC3(C)C)cc1` (centres unmarked) [Example 706, N-(1-ethyl-1-(4-propylphenyl)propyl)-7,7-dimethyl-5-phenyl-4,5,6,7-tetrahydropyrazolo[1,5-a]pyrimidine-3-carboxamide] it was 177 to 178 °C.
With `CCC(CC)(NC(=O)c1c(C)nn2c1NC(c1ccccc1Cl)CC2(C)C)c1ccc(C)cc1` (centres unmarked) (as salt: HCl) [Example 968, 5-(2-chlorophenyl)-N-(1-ethyl-1-(4-methylphenyl)propyl)-2,7,7-trimethyl-4,5,6,7-tetrahydropyrazolo[1,5-a]pyrimidine-3-carboxamide], the melting point was 173 to 174 °C.
In the case of `CCC(CC)(NC(=O)c1cnn2c1NC(c1ccccc1)CC2C(F)(F)F)c1cccc(Br)c1` (centres unmarked) [Example 398, N-(1-(3-bromophenyl)-1-ethylpropyl)-5-phenyl-7-(trifluoromethyl)-4,5,6,7-tetrahydropyrazolo[1,5-a]pyrimidine-3-carboxamide] it was 167 to 168 °C; in that of `CCC(CC)(NC(=O)c1c(C)nn2c1NC(c1ccccc1)CC2(C)C)c1ccc(CO)cc1` (centres unmarked) [Example 955, N-(1-ethyl-1-(4-(hydroxy-methyl)phenyl)propyl)-2,7,7-trimethyl-5-phenyl-4,5,6,7-tetrahydropyrazolo[1,5-a]pyrimidine-3-carboxamide], 146 to 147 °C; in that of `CCC(CC)(NC(=O)c1cnn2c1NC(c1cccc(OC)n1)CC2(C)C)c1ccc(F)cc1` (centres unmarked) [Example 603, N-(1-ethyl-1-(4-fluorophenyl)propyl)-5-(6-methoxy-2-pyridinyl)-7,7-dimethyl-4,5,6,7-tetrahydropyrazolo[1,5-a]pyrimidine-3-carboxamide], 156 to 157 °C.
In turn, `CCC(CC)(NC(=O)c1c(C)nn2c1NC(c1ccc(C)cc1)CC2(C)C)c1ccc(C)cc1` (centres unmarked) (as salt: HCl) [Example 973, N-(1-ethyl-1-(4-methylphenyl)propyl)-2,7,7-trimethyl-5-(4-methylphenyl)-4,5,6,7-tetrahydropyrazolo[1,5-a]pyrimidine-3-carboxamide] had a melting point of 152 to 154 °C.
